Results from US20060116390A1, “Hepatitis c virus inhibitors” (priority 2003, published 2006).
Read-outs that look alike come from different tables or passages of the source.

System: HCV proteins in Rep5.1 cells (replicon cell line)
Assay: Inhibitory activity of HCV: cell-based ELISA in replicon cell line Rep5.1 (decrease of HCV proteins)
Set-up: species or system hepatitis C virus
Summary of the method: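 HCV protein loss was quantified by ELISA on methanol/acetone-fixed cells 72 h after drug addition, probing with selected HCV-positive human plasma, and IC50 was defined as 50% reduction relative to untreated wells. The cells were Rep5.1 replicon cells cultured in DMEM-10 with 500 μg/ml G418, plated at 5000 per well and dosed with serial dilutions after 4 h attachment.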

[1] = Hepatitis C virus, 72 h, Rep5.1 cells, 72 hours with drug, concentration at which 50% of HCV proteins was decreased, Table 2, read-out: IC50
[2] = Hepatitis C virus, 72 h, Rep5.1 cells, 72 hours with drug, decrease of HCV proteins measured by HCV antibody, Table 1, read-out: Level (IC50 values classified)
[3] = Rep5.1 cells, 72 hours with drug, concentration at which 50% of HCV proteins was decreased, Table 2, read-out: IC50

Compound	IC50 [1]	IC50 [2]	IC50 [3]	IC50 (Hepatitis C virus, 72 h)	IC50 (Hepatitis C virus, 72 h, read-out: Level (IC50 values classified))
CCc1ccc(COC(=O)C2=C(C)NC(=S)NC2)s1 [Compound 205, 6-methyl-2-thioxo-1,2,3,4-tetrahydro-pyrimidine-5-carboxylic acid 5-ethyl-thiophen-2-ylmethyl ester]	1.8 µM	1 to 10 µM	–	–	–
CC1=C(C(=O)OCCc2ccc(Cl)cc2Cl)C(CO)NC(=S)N1 (stereo not shown) [43″, 4-hydroxymethyl-6-methyl-2-thioxo-1,2,3,4-tetrahydro-pyrimidine-5-carboxylic acid 2-(2,4-dichloro-phenyl)-ethyl ester]	< 0.4 µM	< 1 µM	–	–	–
CC1=C(C(=O)OCC2(c3ccc(Cl)cc3Cl)CC2)C(CO)NC(=S)N1 (stereo not shown) [61″, 4-hydroxymethyl-6-methyl-2-thioxo-1,2,3,4-tetrahydro-pyrimidine-5-carboxylic acid 1-(2,4-dichloro-phenyl)-cyclopropylmethyl ester]	16 µM	10 to 20 µM	–	–	–
CCOc1ccccc1CCOC(=O)C1=C(C)NC(=S)NC1CO (stereo not shown) [11″, 4-hydroxymethyl-6-methyl-2-thioxo-1,2,3,4-tetrahydro-pyrimidine-5-carboxylic acid 2-(2-ethoxy-phenyl)-ethyl ester]	6 µM	1 to 10 µM	–	–	–
CC1=C(C(=O)OCc2cc(C(F)(F)F)cc(C(F)(F)F)c2)CNC(=S)N1 [Compound 148, 6-methyl-2-thioxo-1,2,3,4-tetrahydro-pyrimidine-5-carboxylic acid 3,5-bis-trifluoromethyl-benzyl ester]	< 0.4 µM	< 1 µM	–	–	–
CC1=C(C(=O)OCCC2CCc3ccccc32)CNC(=S)N1 (stereo not shown) [Compound 126, 6-methyl-2-thioxo-1,2,3,4-tetrahydro-pyrimidine-5-carboxylic acid 2-indan-1-yl-ethyl ester]	< 0.4 µM	< 1 µM	–	–	–
CC1=C(C(=O)OCCCc2ccsc2)C(CS(=O)(=O)C(C)(C)C)NC(=S)N1 (stereo not shown) [68′, 6-methyl-4-(2-methyl-propane-2-sulfonylmethyl)-2-thioxo-1,2,3,4-tetrahydro-pyrimidine-5-carboxylic acid 3-thiophen-3-yl-propyl ester]	> 100 µM	> 20 µM	–	–	–
COc1ccccc1CCOC(=O)C1=C(C)NC(=S)NC1CF (stereo not shown) [42′, 4-fluoromethyl-6-methyl-2-thioxo-1,2,3,4-tetrahydro-pyrimidine-5-carboxylic acid 2-(2-methoxy-phenyl)-ethyl ester]	4.1 µM	1 to 10 µM	–	–	–
CC1=C(C(=O)OCCc2c(F)cccc2F)C(CO)NC(=S)N1 (stereo not shown) [39″, 4-hydroxymethyl-6-methyl-2-thioxo-1,2,3,4-tetrahydro-pyrimidine-5-carboxylic acid 2-(2,6-difluoro-phenyl)-ethyl ester]	20 µM	10 to 20 µM	–	–	–
CC1=C(C(=O)OCCc2cccc(Cl)c2)C(COC(=O)OCC2COC(=O)O2)NC(=S)N1 (stereo not shown) [88″, 6-methyl-4-(2-oxo-[1,3]dioxolan-4-ylmethoxycarbonyloxymethyl)-2-thioxo-1,2,3,4-tetrahydro-pyrimidine-5-carboxylic acid 2-(3-chloro-phenyl)-ethyl ester]	0.9 µM	< 1 µM	–	–	–
CC1=C(C(=O)OC2CCCCC2)CNC(=S)N1 [Compound 37, 6-methyl-2-thioxo-1,2,3,4-tetrahydro-pyrimidine-5-carboxylic acid cyclohexyl ester]	4 µM	1 to 10 µM	–	–	–
CCn1c2ccccc2c2cc(COC(=O)C3=C(C)NC(=S)NC3)ccc21 [Compound 147, 6-methyl-2-thioxo-1,2,3,4-tetrahydro-pyrimidine-5-carboxylic acid 9-ethyl-9H-carbazol-3-ylmethyl ester]	< 0.4 µM	< 1 µM	–	–	–
CC1=C(C(=O)OCC#Cc2ccccc2)CNC(=S)N1 [Compound 192, 6-methyl-2-thioxo-1,2,3,4-tetrahydro-pyrimidine-5-carboxylic acid 3-phenyl-prop-2-inyl ester]	–	–	< 0.4 µM	–	–
CC1=C(C(=O)OCCc2cccc(Cl)c2)CNC(=S)N1 [Compound 117, 6-methyl-2-thioxo-1,2,3,4-tetrahydro-pyrimidine-5-carboxylic acid 2-(3-chloro-phenyl)-ethyl ester]	0.4 µM	< 1 µM	–	–	–
COc1ccc(CSC(=O)C2=C(C)NC(=S)NC2)cc1 [Compound 121, 6-methyl-2-thioxo-1,2,3,4-tetrahydro-pyrimidine-5-carbothioic acid S-(4-methoxy-benzyl)ester]	0.5 µM	< 1 µM	–	–	–
CC1=C(C(=O)SCCc2ccccc2)C(CF)NC(=S)N1 (stereo not shown) [88′, 4-fluoromethyl-6-methyl-2-thioxo-1,2,3,4-tetrahydro-pyrimidine-5-carbothioic acid S-phenethyl ester]	0.4 µM	< 1 µM	–	–	–
CC1=C(C(=O)OCCc2ccc(F)cc2)C(CO)NC(=S)N1 (stereo not shown) [5″, 4-hydroxymethyl-6-methyl-2-thioxo-1,2,3,4-tetrahydro-pyrimidine-5-carboxylic acid 2-(4-fluoro-phenyl)-ethyl ester]	6 µM	1 to 10 µM	–	–	–

Compound	IC50 [1]	IC50 [2]	IC50 [3]	IC50 (Hepatitis C virus, 72 h)	IC50 (Hepatitis C virus, 72 h, read-out: Level (IC50 values classified))
CC1=C(C(=O)OCCc2cccc([N+](=O)[O-])c2)C(COC(=O)c2ccc(C(=O)O)cc2)NC(=S)N1 (stereo not shown) [90″, terephthalic acid mono-{6-methyl-5-[2-(3-nitro-phenyl)-ethoxycarbonyl]-2-thioxo-1,2,3,4-tetrahydro-pyrimidin-4-ylmethyl}ester]	6.9 µM	1 to 10 µM	–	–	–
CC1=C(C(=O)SCc2ccco2)CNC(=S)N1 [38′, 6-methyl-2-thioxo-1,2,3,4-tetrahydro-pyrimidine-5-carbothioic acid S-furan-2-ylmethyl ester]	0.7 µM	< 1 µM	–	–	–
CC1=C(C(=O)OCc2ccccn2)CNC(=S)N1 [Compound 154, 6-methyl-2-thioxo-1,2,3,4-tetrahydro-pyrimidine-5-carboxylic acid pyridin-2-ylmethyl ester]	> 100 µM	> 20 µM	–	–	–
CC1=C(C(=O)OCCc2ccc(C)cc2)C(CO)NC(=S)N1 (stereo not shown) [63″, 4-hydroxymethyl-6-methyl-2-thioxo-1,2,3,4-tetrahydro-pyrimidine-5-carboxylic acid 2-p-tolyl-ethyl ester]	1.6 µM	1 to 10 µM	–	–	–
CC1=C(C(=O)OCCCc2cccc(OC(F)(F)F)c2)CNC(=S)N1 [Compound 106, 6-methyl-2-thioxo-1,2,3,4-tetrahydro-pyrimidine-5-carboxylic acid 3-(3-trifluoromethoxy-phenyl)-propyl ester]	< 0.4 µM	< 1 µM	–	–	–
COCC#CCOC(=O)C1=C(C)NC(=S)NC1 [Compound 215, 6-methyl-2-thioxo-1,2,3,4-tetrahydro-pyrimidine-5-carboxylic acid 4-methoxy-but-2-inyl ester]	–	–	11 µM	–	–
CC1=C(C(=O)OCc2ccccc2)C(CO)NC(=S)N1 (stereo not shown) [8″, 4-hydroxymethyl-6-methyl-2-thioxo-1,2,3,4-tetrahydro-pyrimidine-5-carboxylic acid benzyl ester]	> 100 µM	> 20 µM	–	–	–
CC1=C(C(=O)OCc2cnc(-c3cccs3)s2)CNC(=S)N1 [Compound 210, 6-methyl-2-thioxo-1,2,3,4-tetrahydro-pyrimidine-5-carboxylic acid 2-thiophen-2-yl-thiazol-5-ylmethyl ester]	3 µM	1 to 10 µM	–	–	–
CC1=C(C(=O)OCCC[S+]([O-])c2nc3ccccc3o2)C(CF)NC(=S)N1 (stereo not shown) [49′, 4-fluoromethyl-6-methyl-2-thioxo-1,2,3,4-tetrahydro-pyrimidine-5-carboxylic acid 3-(benzoxazol-2-ylsulfinyl)-propyl ester]	8 µM	1 to 10 µM	–	–	–
CCc1ccc(COC(=O)C2=C(C)NC(=S)NC2)o1 [Compound 264, 6-methyl-2-thioxo-1,2,3,4-tetrahydro-pyrimidine-5-carboxylic acid 5-ethyl-furan-2-ylmethyl ester]	13 µM	10 to 20 µM	–	–	–
CC1=C(C(=O)OCCCc2sccc2C)C(CO)NC(=S)N1 (stereo not shown) [17″, 4-hydroxymethyl-6-methyl-2-thioxo-1,2,3,4-tetrahydro-pyrimidine-5-carboxylic acid 3-(3-methyl-thiophen-2-yl)-propyl ester]	9 µM	1 to 10 µM	–	–	–
CC1=C(C(=O)OCc2sccc2C)CNC(=S)N1 [Compound 202, 6-methyl-2-thioxo-1,2,3,4-tetrahydro-pyrimidine-5-carboxylic acid 3-methyl-thiophen-2-ylmethyl ester]	9 µM	1 to 10 µM	–	–	–
CC1=C(C(=O)OCC=Cc2ccccc2)CNC(=S)N1 [Compound 54, 6-methyl-2-thioxo-1,2,3,4-tetrahydro-pyrimidine-5-carboxylic acid 3-phenyl-allyl ester]	< 0.5 µM	< 1 µM	–	–	–
CC1=C(C(=O)OCC2=CCC3CC2C3(C)C)CNC(=S)N1 (stereo not shown) [Compound 97, 6-methyl-2-thioxo-1,2,3,4-tetrahydro-pyrimidine-5-carboxylic acid 6,6-dimethyl-bicyclo[3.1.1]hept-2-en-2-ylmethyl ester]	–	–	–	< 0.4 µM	< 1 µM
CC1=C(C(=O)OCCc2ccsc2)C(c2ccccc2)NC(=S)N1 (stereo not shown) [4′, 6-methyl-4-phenyl-2-thioxo-1,2,3,4-tetrahydro-pyrimidine-5-carboxylic acid 2-thiophen-3-yl-ethyl ester]	51 µM	> 20 µM	–	–	–
CCCN(CC)c1ccc(CCOC(=O)C2=C(C)NC(=S)NC2CO)cc1[N+](=O)[O-] (stereo not shown) [92″, 4-Hydroxymethyl-6-methyl-2-thioxo-1,2,3,4-tetrahydro-pyrimidine-5-carboxylic acid 2-[4-(ethyl-propylamino)-3-nitro-phenyl]-ethyl ester]	0.4 µM	< 1 µM	–	–	–
